The values that follow are results of earlier work, collected in patent publication US20030032669A1, “Pesticidal compositions and their use as protecting agents” (priority 2000, published 2003).

The conditions of series [1]: aqueous solutions at 50° C.
Series [2] deals with adult grain weevils Sitophilus granarius. Conditions: wheat treated with 1 μg/g; after 50 days.
The conditions of series [3]: alcohols, ketones and toluene.
The subject of series [4] is larvae of German cockroach Blatella germanica. Conditions: exposure to 100 ng/cm^2; after 3 weeks.

In the case of `CCOC(=O)NCCOc1ccc(Oc2ccccc2)cc1` [fenoxycarb, ethyl 2-(4-phenoxyphenoxy)ethylcarbamate], the degradation in soil result was “rapidly degraded”. Besides, the stability to hydrolysis entry in series [1] is on record as “stable to hydrolysis”. Besides, the “reduction of population of adult grain weevils” value in series [2] is listed as 100%. Further, the “solubility in organic solvents” value in series [3] is on record as “very soluble”. Further, in series [4], the “reduction of population of larvae of German cockroach” value was 90%.

For the compound `O=C(NC(=O)c1c(F)cccc1F)Nc1ccc(Oc2ccc(C(F)(F)F)cc2Cl)cc1F` [flufenoxuron, 1-[4-(2-chloro-trifluoro-p-tolyloxy)-2-fluorophenyl]-3-(2,6-difluorobenzoyl)urea], the degradation in soil entry was “rapidly degraded”. Besides, the phyto-toxicity result in the series on plants is recorded as “no recorded phyto-toxicity”.
